Results: patent US20140099262A1, “ISOTOPICALLY LABELED CDP-CHOLINE AND USES THEREOF” (BRAIN WATCH LTD., priority 2011, published 2014)
Marks after values point to notes of the source that are not given here.

Key:
[1] = 31P T1 (spin-lattice relaxation) measurement of CDP-Choline phosphates by inversion recovery, in water and in plasma; assay type: physicochemical; conditions: 31P-NMR, 11.8T, confidence interval in brackets
Protocol: […] CDP-Choline were dissolved in 700 μL distilled water containing 10% deuterated water (85.7 mM solution) and stored in a 5 mm NMR tube in the freezer until assay.
Two units of expired plasma (about 250 cc per unit) from blood type AB and O were obtained frozen from the blood bank section at Hadassah Medical Center. Plasma was defrosted in the refrigerator overnight. 565 μl of plasma solution was mixed with 75 IA distilled water and transferred to a 5 mm NMR tube. The solution was kept on ice until NMR analysis the same day. 60 μl CDP-Choline was added to the solution and ^31P-NMR was recorded 37 s from the time CDP-Choline mixed with the plasma solutions in the NMR tube. The Ionic strength of the solution was 315.04 mM and the concentration of CDP-Choline 15.4 mM.
Spectra were obtained on an 11.8T high-resolution spectrometer (Varian, Palo Alto, Calif., USA) with a 5 mm direct multi-nuclei probe.
T1 measurements were performed for CDP-Choline in water and in plasma with the standard inversion recovery pulse sequence. The data were fitted to the standard inversion recovery equation using the MATLAB software (The MathWorks Inc., Natick, Mass., USA).

[2] = intravenous administration; cited from earlier work
[3] = T1 of carbon-13 nuclei in the choline moiety of CDP-choline; assay type: physicochemical; conditions: 11.8 T, non-deuterated positions
From the text: Furthermore, it was unexpected to find that the relaxation time of the phosphorus nuclei is longer in plasma as compared to water.

## C[N+](C)(C)CCOP(=O)(O)OP(=O)(O)OC[C@H]1O[C@@H](n2ccc(N)nc2=O)[C@H](O)[C@@H]1O [CDP-Choline, 5′-O-[hydroxy({hydroxy[2-(trimethylammonio)ethoxy]phosphoryl}oxy)phosphoryl]cytidine]
[1]; H2O, 85.7 mM
  T1 of phosphate P1: 1.2 (0.9-1.5) s
  T1 of phosphate P2: 1.4 (1.3-1.6) s
[1]; plasma, 15.4 mM
  T1 of phosphate P1: 2.0 (1.9-2.0)* s
  T1 of phosphate P2: 2.6 (2.4-2.8) s
[2]
  LD0 of CDP-Choline compared to choline: about 40 fold
[3]
  T1 of the carbon-13 nuclei in the choline moiety: 2 to 3 s
